Reference: patent US20250243180A1, “TARGETED PROTEIN DEGRADATION” (Monte Rosa Therapeutics AG, priority 2023, published 2025)
pIC50: −log10 of the molar value.

What was measured:
IL-1β [1] = assay: Ex vivo whole blood stimulation (LPS/nigericin) IL-1β ELISA after dosing of NHP; type: in vivo, cynomolgus monkeys; conditions: oral 5 mg/kg for 5 days
Protocol: Within 0.5 h of blood collection from animals that received vehicle or Compound 14 at 5 mg/kg, whole blood was aliquoted into two 0.25 mL aliquots. One aliquot was used as baseline, and the other as the ex vivo stimulated condition. For stimulation, whole blood was incubated with 100 ng/mL Lipopolysaccharide from Escherichia coli 0111:B4 (LPS-EB) for 3 h, followed by 10 μM nigericin for 2 h. Plasma was then isolated and concentrations of IL-1β in plasma isolated from ex vivo whole blood stimulation were measured using the IL-1β ELISA R&D Systems kit (Cat. #DY1318), with 50 μL per sample diluted with 50 μL reagent diluent/well. After reading absorbance on plate reader, standard curve and sample IL-1β levels were analyzed using 4PL method. […]
In Table 9, suppression of ex vivo inflammasome activation following degradation of NEK7 in NHP is reported. Whole blood was isolated at the indicated time points from NHP dosed orally 5 mg/kg of Compound 14 over 5 days (day 1 through 5), n=2. Days 10 and 15 correspond to recovery period, 5 or 10 days after drug administration, respectively. Whole blood was stimulated ex vivo with 100 ng/mL LPS for 3 h and 10 μM nigericin for 2 h. Plasma was isolated and IL-1β was measured by ELISA. […]

NEK7 = NEK7 degradation in the brain of NHP (JESS); type: in vivo; conditions: oral 30 mg/kg for 7 days; for Average percent NEK7/β-actin in brain, relative to vehicle: 24 h after final dose
Protocol: (§1) Naïve NHP were orally administered with 7 consecutive daily dose of Compound 14 at 30 mg/kg, n=4 per dose group, 2 male and 2 female. Compound formulation was prepared on the day of administration in 0.5% methyl cellulose (4000 cps) in water and animals were fed twice a day; water was available ad libitum. Plasma collected posted dose on Day 1 and Day 7 were analyzed using a non GLP LC/MS/MS bioanalytical method to evaluate the compound concentration. Brain samples were harvested 24 h after final dose. Lysates for different brain regions (hippocampus, frontal cortex, and cerebellum) were prepared in M-PER lysis buffer and diluted at total protein concentration of 0.4 mg/mL in 0.1× sample buffer (12-230 kDa detection module; Protein Simple). The anti-NEK7 rabbit mAb (Abcam #AB133514) was used at 1:100 and anti-β-actin rabbit mAb (CST #5125) was used at 1:500. Samples were probed for NEK7 and β-actin protein levels by JESS, and quantified relative to vehicle control.
In Table 11, NEK7 protein degradation in brains of NHP following oral dosing of Compound 14 is reported. NHP received daily oral administration of 30 mg/kg of Compound 14 or vehicle for 7 days. For Compound 14 group, n=4 (two male and two female); for vehicle, n=2; samples taken 24 h post-final dose. Brains were harvested 24 h after final dose, sectioned by region (hippocampus, frontal cortex, cerebellum), and analyzed for NEK7 and beta-actin protein levels by JESS. The average percent of NEK7 was quantified by brain region and normalized to β-actin.

[2] = Plasma pharmacokinetics in NHP, 30 mg/kg oral for 7 days; type: in vivo; conditions: oral 30 mg/kg daily for 7 days, average male and female
Protocol: as §1
In Table 10, concentration of Compound 14 in NHP plasma following administration via oral gavage after 7 days post dose at 30 mg/kg is reported. NHP received daily oral administration of 30 mg/kg of Compound 14 for 7 days, n=2.

Caspase-1 activity = Caspase-1 activity in human monocyte-derived macrophages, LPS/MSU stimulation; type: cell-based
Protocol: (§2) Human monocytes were enriched and isolated from a buffy coat of whole blood with a RosetteSep™ Human Monocyte Enrichment Cocktail (Cat.No. 15068, StemCell) and Ficoll-Plaque PLUS (Cat.No. H8889, Sigma). Monocytes were differentiated into macrophages by treatment with 100 ng/mL M-CSF for 6 days at 37° C., 5% CO2. Differentiated macrophages were seeded overnight (50,000 cells/well) in 100 μL of medium in a 96-well white-bottom plate at 37° C., 5% CO2. Cells were treated with a concentration range of MGD or the NLRP3 inhibitor selnoflast (Cat.No. HY-132831, MedChemExpress) for 24 h prior to stimulation with monosodium urate crystals (MSU). Macrophages were stimulated with […] lipopolysaccharide (LPS) and 0.2 mg/mL MSU for 6 h. Medium of stimulated macrophages were collected and assayed for caspase-1 activity directly (Promega G9951) as well as IL-1β (Promega W6010), according to manufacturer's instructions.
(§3) (a, b) Human monocyte-derived macrophages pre-treated with a dose-response of Compound 14 or selnoflast (NLRP3 inhibitor) for 24 h and stimulated with a combination of lipopolysaccharide (LPS) and monosodium urate crystals (MSU) for 6 h prior to supernatant collection. Monocytes were isolated from eight human donors. Caspase-1 (a) and IL-1β (b) in the supernatant are measured and data are expressed as percentage relative to mean values of DMSO conditions for each donor (technical triplicates). Means of eight donors are plotted and analyzed using a four-parameter logistic regression model.

IL-1β [3] = assay: IL-1β in human monocyte-derived macrophages, LPS/MSU stimulation; type: cell-based; conditions: 24 h pre-treatment, LPS + MSU 6 h, eight donors
Protocol: as §2, §3

[4] = both sexes, monkey, plasma, po, 30 mg/kg
[5] = both sexes, non-human primate (NHP)

Cc1cnc(C(C)(C)C(=O)NCc2cc(Cl)c(C3CCC(=O)NC3=O)c(Cl)c2)nc1 (stereo not shown) [Compound 14, N-(3,5-dichloro-4-(2,6-dioxopiperidin-3-yl)benzyl)-2-methyl-2-(5-methylpyrimidin-2-yl)-propanamide]
Percent IL-1β relative to predose (IL-1β [1]; Day 1, 6 h): 1%
Percent IL-1β relative to predose (IL-1β [1]; Day 1, 24 h): 45%
Percent IL-1β relative to predose (IL-1β [1]; Day 5, 6 h): 0%
Percent IL-1β relative to predose (IL-1β [1]; Day 5, 24 h): 78%
Percent IL-1β relative to predose (IL-1β [1]; Day 10, 24 h (recovery)): 91.5%
Percent IL-1β relative to predose (IL-1β [1]; Day 15, 24 h (recovery)): 141%
degradation of NEK7 across three different brain regions (NEK7): around 80%
Average percent NEK7/β-actin in brain, relative to vehicle (NEK7; Cerebellum): 18.2%
Average percent NEK7/β-actin in brain, relative to vehicle (NEK7; Frontal Cortex): 20.3%
Average percent NEK7/β-actin in brain, relative to vehicle (NEK7; Hippocampus): 21.3%
Cmax ([2]; both sexes, monkey): 6600 ng/mL
Tmax ([2]; both sexes, monkey): 1.75 h
AUC0-24h [2, 4]: 36600 ng·h/mL
AUC(0-t) [2, 4]: 27200 ng·h/mL
Cmax [2, 5]: 6600 ng/mL
Tmax [2, 5]: 1.75 h
tlast [2]: 8 h
Caspase-1 activity Imax (Caspase-1 activity; 24 h pre-treatment, LPS + MSU 6 h, eight donors): 81%
pIC50 (Caspase-1 activity; Homo sapiens, Macrophage, 24 h pre-treatment, LPS + MSU 6 h, eight donors): 8.80
inhibition of NLRP3-driven activation of human macrophages (Caspase-1 activity; LPS/MSU stimulation): dose-dependent inhibition
IL-1β Imax (IL-1β [3]): 70%
pIC50 (IL-1β [3]; Homo sapiens, Macrophage): 8.96
